Reference: US9845330B2, “6-nitro-2,3-dihydroimidazo[2,1-b]oxazoles and a process for the preparation thereof” (priority 2013, dated 2017)
In brackets after ≈: the same amount, converted by molar mass.

Experiments:
[1] = test system: M. tuberculosis XDR (resistant to isoniazid, rifampicin, amikacin and moxifloxacin); experiment: microbe, parasite or virus in culture; type: cell-based; conditions: Mycobacterium tuberculosis, 504 h, read-out: MIC M. tb XDR
[2] = test system: M. tuberculosis MDR (resistant to isoniazid and rifampicin); experiment: microbe, parasite or virus in culture; type: cell-based; conditions: Mycobacterium tuberculosis, 504 h, read-out: MIC M. tb MDR

SMILES | MIC [1] [µg/mL] | MIC [2] [µg/mL]
C[C@]1(COc2ccc(-n3cc(-c4ccccc4)nn3)cc2)Cn2cc([N+](=O)[O-])nc2O1 [IA1] | 4 (≈ 9.56 µM) | 4 (≈ 9.56 µM)
CCc1ccc(-c2cn(-c3ccc(OC[C@@]4(C)Cn5cc([N+](=O)[O-])nc5O4)cc3)nn2)cc1 [IA2, (R)-2-{4-[4-(4-ethylphenyl)-1H-1,2,3-triazol-1-yl]phenoxymethyl}-2,3-dihydro-2-methyl-6-nitroimidazo[2,1-b]oxazole] | 4 (≈ 8.96 µM) | 4 (≈ 8.96 µM)
C[C@]1(COc2ccc(-n3cc(-c4ccc(F)cc4)nn3)cc2)Cn2cc([N+](=O)[O-])nc2O1 [IA3, (R)-2-{4-[4-(4-fluorophenyl)-1H-1,2,3-triazol-1-yl]phenoxymethyl}-2,3-dihydro-2-methyl-6-nitroimidazo[2,1-b]oxazole] | 0.25 (≈ 0.573 µM) | 0.25 (≈ 0.573 µM)
C[C@]1(COc2ccc(-n3cc(-c4ccccc4F)nn3)cc2)Cn2cc([N+](=O)[O-])nc2O1 [IA4, (R)-2-{4-[4-(2-fluorophenyl)-1H-1,2,3-triazol-1-yl]phenoxymethyl}-2,3-dihydro-2-methyl-6-nitroimidazo[2,1-b]oxazole] | 2 (≈ 4.58 µM) | 2 (≈ 4.58 µM)
C[C@]1(COc2ccc(-n3cc(-c4ccc(OC(F)(F)F)cc4)nn3)cc2)Cn2cc([N+](=O)[O-])nc2O1 [IA5, (R)-2-{4-[4-(4-trifluoromethoxyphenyl)-1H-1,2,3-triazol-1-yl]phenoxymethyl}-2,3-dihydro-2-methyl-6-nitroimidazo[2,1-b]oxazole] | 0.5 (≈ 0.995 µM) | 0.5 (≈ 0.995 µM)
C[C@]1(COc2ccc(-n3cc(-c4ccccc4C(F)(F)F)nn3)cc2)Cn2cc([N+](=O)[O-])nc2O1 [IA6, (R)-2-{4-[4-(2-trifluoromethylphenyl)-1H-1,2,3-triazol-1-yl]phenoxymethyl}-2,3-dihydro-2-methyl-6-nitroimidazo[2,1-b]oxazole] | 1 (≈ 2.06 µM) | 1 (≈ 2.06 µM)
C[C@]1(COc2ccc(-n3cc(-c4ccc(F)cc4F)nn3)cc2)Cn2cc([N+](=O)[O-])nc2O1 [IA7, (R)-2-{4-[4-(2,4-difluorophenyl)-1H-1,2,3-triazol-1-yl]phenoxymethyl}-2,3-dihydro-2-methyl-6-nitroimidazo[2,1-b]oxazole] | 2 (≈ 4.4 µM) | 2 (≈ 4.4 µM)
Cc1ccc(-c2cn(-c3ccc(OC[C@@]4(C)Cn5cc([N+](=O)[O-])nc5O4)cc3)nn2)cc1 [IA8, (R)-2-{4-[4-(4-methylphenyl)-1H-1,2,3-triazol-1-yl]phenoxymethyl}-2,3-dihydro-2-methyl-6-nitroimidazo[2,1-b]oxazole] | 1 (≈ 2.31 µM) | 1 (≈ 2.31 µM)
CC(C)c1ccc(-c2cn(-c3ccc(OC[C@@]4(C)Cn5cc([N+](=O)[O-])nc5O4)cc3)nn2)cc1 [IA9, (R)-2-{4-[4-(4-isopropylphenyl)-1H-1,2,3-triazol-1-yl]phenoxymethyl}-2,3-dihydro-2-methyl-6-nitroimidazo[2,1-b]oxazole] | 1 (≈ 2.17 µM) | 1 (≈ 2.17 µM)
C[C@]1(COc2ccc(-n3cc(-c4cccc(F)c4)nn3)cc2)Cn2cc([N+](=O)[O-])nc2O1 [IA10, (R)-2-{4-[4-(3-fluorophenyl)-1H-1,2,3-triazol-1-yl]phenoxymethyl}-2,3-dihydro-2-methyl-6-nitroimidazo[2,1-b]oxazole] | 2 (≈ 4.58 µM) | 2 (≈ 4.58 µM)
COc1ccc(-c2cn(-c3ccc(OC[C@@]4(C)Cn5cc([N+](=O)[O-])nc5O4)cc3)nn2)cc1 [IA11, (R)-2-{4-[4-(4-methoxyphenyl)-1H-1,2,3-triazol-1-yl]phenoxymethyl}-2,3-dihydro-2-methyl-6-nitroimidazo[2,1-b]oxazole] | 0.25 (≈ 0.557 µM) | 0.25 (≈ 0.557 µM)
C[C@]1(COc2ccc(-n3cc(-c4cccc(OC(F)(F)F)c4)nn3)cc2)Cn2cc([N+](=O)[O-])nc2O1 [IA12, (R)-2-{4-[4-(3-trifluoromethoxyphenyl)-1H-1,2,3-triazol-1-yl]phenoxymethyl}-2,3-dihydro-2-methyl-6-nitroimidazo[2,1-b]oxazole] | 0.5 (≈ 0.995 µM) | 0.5 (≈ 0.995 µM)
C[C@]1(COc2ccc(-n3cc(-c4cccc(C(F)(F)F)c4)nn3)cc2)Cn2cc([N+](=O)[O-])nc2O1 [IA13, (R)-2-{4-[4-(3-trifluoromethylphenyl)-1H-1,2,3-triazol-1-yl]phenoxymethyl}-2,3-dihydro-2-methyl-6-nitroimidazo[2,1-b]oxazole] | 2 (≈ 4.11 µM) | 2 (≈ 4.11 µM)
C[C@]1(COc2ccc(-n3cc(-c4ccccn4)nn3)cc2)Cn2cc([N+](=O)[O-])nc2O1 [IA14] | 2 (≈ 4.77 µM) | 2 (≈ 4.77 µM)
CCCCCc1cn(-c2ccc(OC[C@@]3(C)Cn4cc([N+](=O)[O-])nc4O3)cc2)nn1 [IA15, (R)-2-{4-[4-pentyl-1H-1,2,3-triazol-1-yl]phenoxymethyl}-2,3-dihydro-2-methyl-6-nitroimidazo[2,1-b]oxazole] | 32 (≈ 77.6 µM) | 32 (≈ 77.6 µM)
CCCCCCCc1cn(-c2ccc(OC[C@@]3(C)Cn4cc([N+](=O)[O-])nc4O3)cc2)nn1 [IA16, (R)-2-{4-[4-heptyl-1H-1,2,3-triazol-1-yl]phenoxymethyl}-2,3-dihydro-2-methyl-6-nitroimidazo[2,1-b]oxazole] | 4 (≈ 9.08 µM) | 4 (≈ 9.08 µM)
C[C@]1(COc2cccc(-n3cc(-c4ccc(F)cc4)nn3)c2)Cn2cc([N+](=O)[O-])nc2O1 [IA17, (R)-2-{3-[4-(4-fluorophenyl)-1H-1,2,3-triazol-1-yl]phenoxymethyl}-2,3-dihydro-2-methyl-6-nitroimidazo[2,1-b]oxazole] | 2 (≈ 4.58 µM) | 2 (≈ 4.58 µM)
C[C@]1(COc2cccc(-n3cc(-c4ccc(C(F)(F)F)cc4)nn3)c2)Cn2cc([N+](=O)[O-])nc2O1 [IA18, (R)-2-{3-[4-(4-trifluoromethylphenyl)-1H-1,2,3-triazol-1-yl]phenoxymethyl}-2,3-dihydro-2-methyl-6-nitroimidazo[2,1-b]oxazole] | 2 (≈ 4.11 µM) | 2 (≈ 4.11 µM)
C[C@]1(COc2cccc(-n3cc(-c4ccc(OC(F)(F)F)cc4)nn3)c2)Cn2cc([N+](=O)[O-])nc2O1 [IA19, (R)-2-{3-[4-(4-trifluoromethoxyphenyl)-1H-1,2,3-triazol-1-yl]phenoxymethyl}-2,3-dihydro-2-methyl-6-nitroimidazo[2,1-b]oxazole] | 4 (≈ 7.96 µM) | 4 (≈ 7.96 µM)

SMILES | MIC [1] [µg/mL] | MIC [2] [µg/mL]
C[C@]1(COc2cccc(-n3cc(-c4ccc(F)cc4F)nn3)c2)Cn2cc([N+](=O)[O-])nc2O1 [IA20, (R)-2-{3-[4-(2,4-difluorophenyl)-1H-1,2,3-triazol-1-yl]phenoxymethyl}-2,3-dihydro-2-methyl-6-nitroimidazo[2,1-b]oxazole] | 4 (≈ 8.8 µM) | 4 (≈ 8.8 µM)
C[C@]1(COc2ccccc2-n2cc(-c3ccc(F)cc3)nn2)Cn2cc([N+](=O)[O-])nc2O1 [IA21, (R)-2-{2-[4-(4-fluorophenyl)-1H-1,2,3-triazol-1-yl]phenoxymethyl}-2,3-dihydro-2-methyl-6-nitroimidazo[2,1-b]oxazole] | 1 (≈ 2.29 µM) | 1 (≈ 2.29 µM)
C[C@]1(COc2ccccc2-n2cc(-c3ccc(C(F)(F)F)cc3)nn2)Cn2cc([N+](=O)[O-])nc2O1 [IA22, (R)-2-{2-[4-(4-trifluoromethylphenyl)-1H-1,2,3-triazol-1-yl]phenoxymethyl}-2,3-dihydro-2-methyl-6-nitroimidazo[2,1-b]oxazole] | 4 (≈ 8.22 µM) | 4 (≈ 8.22 µM)
C[C@]1(COc2ccccc2-n2cc(-c3ccc(OC(F)(F)F)cc3)nn2)Cn2cc([N+](=O)[O-])nc2O1 [IA23, (R)-2-{2-[4-(4-trifluoromethoxyphenyl)-1H-1,2,3-triazol-1-yl]phenoxymethyl}-2,3-dihydro-2-methyl-6-nitroimidazo[2,1-b]oxazole] | 4 (≈ 7.96 µM) | 4 (≈ 7.96 µM)
C[C@]1(COc2ccccc2-n2cc(-c3ccc(F)cc3F)nn2)Cn2cc([N+](=O)[O-])nc2O1 [IA24, (R)-2-{2-[4-(2,4-difluorophenyl)-1H-1,2,3-triazol-1-yl]phenoxymethyl}-2,3-dihydro-2-methyl-6-nitroimidazo[2,1-b]oxazole] | 1 (≈ 2.2 µM) | 1 (≈ 2.2 µM)
C[C@]1(COc2ccc(-n3cc(COc4ccc(OC(F)(F)F)cc4)nn3)cc2)Cn2cc([N+](=O)[O-])nc2O1 [IA25] | 0.12 (≈ 0.225 µM) | 0.12 (≈ 0.225 µM)
C[C@]1(COc2ccc(-n3cc(COc4ccc(F)cc4)nn3)cc2)Cn2cc([N+](=O)[O-])nc2O1 [IA26] | 0.5 (≈ 1.07 µM) | 0.5 (≈ 1.07 µM)
C[C@]1(COc2ccc(-n3cc(COc4ccc(C(F)(F)F)cc4)nn3)cc2)Cn2cc([N+](=O)[O-])nc2O1 [IA27] | 0.25 (≈ 0.484 µM) | 0.25 (≈ 0.484 µM)
C[C@]1(COc2ccc(-n3cc(COc4ccccc4F)nn3)cc2)Cn2cc([N+](=O)[O-])nc2O1 [IA28] | 0.12 (≈ 0.257 µM) | 0.12 (≈ 0.257 µM)
Cc1ccc(OCc2cn(-c3ccc(OC[C@@]4(C)Cn5cc([N+](=O)[O-])nc5O4)cc3)nn2)cc1 [IA29] | 32 (≈ 69.2 µM) | 32 (≈ 69.2 µM)
CC(C)c1ccc(OCc2cn(-c3ccc(OC[C@@]4(C)Cn5cc([N+](=O)[O-])nc5O4)cc3)nn2)cc1 [IA30] | 32 (≈ 65.2 µM) | 32 (≈ 65.2 µM)
CCc1ccc(OCc2cn(-c3ccc(OC[C@@]4(C)Cn5cc([N+](=O)[O-])nc5O4)cc3)nn2)cc1 [IA31] | 0.25 (≈ 0.525 µM) | 0.25 (≈ 0.525 µM)
CCC(C)c1ccc(OCc2cn(-c3ccc(OC[C@@]4(C)Cn5cc([N+](=O)[O-])nc5O4)cc3)nn2)cc1 (some centres unmarked) [IA32] | 0.12 (≈ 0.238 µM) | 0.12 (≈ 0.238 µM)
C[C@]1(COc2cccc(-n3cc(COc4ccc(OC(F)(F)F)cc4)nn3)c2)Cn2cc([N+](=O)[O-])nc2O1 [IA33] | 0.12 (≈ 0.225 µM) | 0.12 (≈ 0.225 µM)
C[C@]1(COc2cccc(-n3cc(COc4ccc(F)cc4)nn3)c2)Cn2cc([N+](=O)[O-])nc2O1 [IA34] | 0.12 (≈ 0.257 µM) | 0.12 (≈ 0.257 µM)
C[C@]1(COc2cccc(-n3cc(COc4ccc(C(F)(F)F)cc4)nn3)c2)Cn2cc([N+](=O)[O-])nc2O1 [IA35] | 2 (≈ 3.87 µM) | 2 (≈ 3.87 µM)
C[C@]1(COc2cccc(-n3cc(COc4ccccc4F)nn3)c2)Cn2cc([N+](=O)[O-])nc2O1 [IA36] | 2 (≈ 4.29 µM) | 2 (≈ 4.29 µM)
Cc1ccc(OCc2cn(-c3cccc(OC[C@@]4(C)Cn5cc([N+](=O)[O-])nc5O4)c3)nn2)cc1 [IA37] | 4 (≈ 8.65 µM) | 4 (≈ 8.65 µM)
